Earlier results in patent US20040024042A1, “COX2 inhibition in the prevention and treatment of autosomal dominant polycystic kidney disease” (Vanderbilt University, priority 2002, published 2004).
Values belong to the compound of their own block, whether it stands above or below them.

How the values were obtained:
[1] = system: albumin and alpha1-acid glycoprotein; settings: within the clinical dose range
[2] = biological target: Cytochrome P450 2C9 (Homo sapiens, UniProt P11712)
[3] = system: PKD in animal models
[4] = system: mouse models of FAP; settings: mice treated with COX2 inhibitor
[5] = not given; remark: listed apart in the source
[6] = system: warfarin metabolism; settings: in vivo
[7] = system: Cytochrome P450 3A4
[8] = not given; remark: listed apart in the source

Cytochrome P450 2C9, sequence (P11712 whole entry): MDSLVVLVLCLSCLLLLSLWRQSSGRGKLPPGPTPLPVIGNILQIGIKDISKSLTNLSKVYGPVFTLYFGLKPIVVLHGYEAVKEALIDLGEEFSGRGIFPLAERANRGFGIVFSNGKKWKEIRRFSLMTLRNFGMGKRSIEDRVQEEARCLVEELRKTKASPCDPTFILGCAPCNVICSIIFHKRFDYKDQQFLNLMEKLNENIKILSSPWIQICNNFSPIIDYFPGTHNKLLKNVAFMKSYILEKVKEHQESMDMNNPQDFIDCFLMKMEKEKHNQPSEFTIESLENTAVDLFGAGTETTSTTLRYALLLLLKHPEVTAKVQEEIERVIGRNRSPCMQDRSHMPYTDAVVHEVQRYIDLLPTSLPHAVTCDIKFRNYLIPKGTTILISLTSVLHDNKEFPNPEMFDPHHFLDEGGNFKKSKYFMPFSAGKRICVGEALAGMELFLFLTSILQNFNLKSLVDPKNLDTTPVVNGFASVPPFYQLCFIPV

Protein binding [1]: highly protein bound
Major metabolizing enzyme [2]: Cytochrome P450 2C9
Time of peak plasma levels (after an oral dose): roughly 3 hours
Effect of antacids on plasma concentrations (aluminum or magnesium containing antacids): decrease in plasma concentrations
Effective half-life (fasted conditions): roughly 11 hours
Dose excreted in feces (following a single dose): 57%
Dose excreted in the urine (following a single dose): 27%
Delay of plasma levels with food (taken with a high fat meal): 1 to 2 h
Increase in total absorption with food (taken with a high fat meal): 10-20%
Structure (SMILES): Cc1ccc(-c2cc(C(F)(F)F)nn2-c2ccc(S(N)(=O)=O)cc2)cc1 [celecoxib, 4-[5-(4-methyphenyl)-3-(trifluoromethyl)-1H-pyrazol-1-yl] benzenesulfonamide]

Structure (SMILES): CC(=O)O[C@H]1C(=O)[C@@]2(C)[C@H]([C@H](OC(=O)c3ccccc3)[C@]3(O)C[C@H](OC(=O)[C@H](O)[C@@H](NC(=O)c4ccccc4)c4ccccc4)C(C)=C1C3(C)C)[C@]1(OC(C)=O)CO[C@@H]1C[C@@H]2O [Taxol]
Progression of PKD [3]: slow progression of PKD

Time to steady state level ([5]; 25 mg qday): 4 days
Increase of AUC in moderate hepatic insufficiency ([5]; Child-Pugh score 7-9): 69%
Peak plasma concentration (Cmax) ([5]; after a 25-mg dose): 200 ng/mL
Reduction of Cmax by antacids ([5]; antacids): 20%
Reduction of extent of absorption by antacids ([5]; antacids): 10-15%
Increase in bioavailability in elderly patients ([5]; elderly patients (>65 yrs) compared to young subjects): 34%
Cd ([5]; in vivo): 90 L
Dose excreted unchanged in the urine ([5]; in vivo): < 1%
Oral bioavailability ([5]; in vivo, po): > 90%
Accumulation factor ([5]; repeated administration): 1.67
Cssmax ([5]; steady state, 25 mg qday): 320 ng/mL
Increase of INR with warfarin [6]: about 10%
Induction of the 3A4 isoform ([7]; in vivo): mild inducer
Substrate of the P450 system ([7]; in vivo): not a substrate for the P450 system
Reduction of the AUC of midazolam ([7]; rofecoxib 25 mg daily): 30%
Structure (SMILES): CS(=O)(=O)c1ccc(C2=C(c3ccccc3)C(=O)OC2)cc1 [rofecoxib]
Polyp formation [4]: marked reduction in polyp formation
Crossing of the placenta and the blood-brain barrier ([8]; animal studies): able to cross the placenta and the blood-brain barrier
Excretion in milk ([8]; lactating animals): excreted in the milk of lactating animals
